The values below are quoted from earlier work in US20220018045A1, “ELECTROSPUN COAXIAL POLYMER FIBERS FOR CONTROLLED INSECT REPELLENT RELEASE” (The Government of the United States of America, as …, priority 2020, published 2022).

The conditions of this data set: ambient conditions.

With `CCC(C)OC(=O)N1CCCCC1CCO` (stereo not shown) [picaridin, 1-(1-methylpropoxycarbonyl)-2-(2-hydroxyethyl)piperidine], the vapor pressure is ~3.3×10^−2 Pa.
